In the NIST ThermoML archive (doi:10.1021/je060139a):

How the values were obtained:
[1] = refractive index (Na D-line) (dimensionless); xn = mol fraction of the nth substance listed; settings: 100.5 kPa, Liquid, Standard Abbe refractometry
[2] = xn = mol fraction of the nth substance listed; settings: Wilhelmy plate method

CCOC(=O)CC(C)=O [ethyl 3-oxobutanoate] + CCO
Settings	refractive index, 288.15 K	refractive index, 298.18 K	refractive index, 308.15 K	refractive index, 318.15 K	surface tension liquid-gas, 288.15 K [mN/m]	surface tension liquid-gas, 298.18 K [mN/m]	surface tension liquid-gas, 308.15 K [mN/m]	surface tension liquid-gas, 318.15 K [mN/m]
[1], x1 = 0.05	1.3696	1.3654	1.3612	1.3572	–	–	–	–
[1], x1 = 0.1	1.3751	1.3709	1.3666	1.3625	–	–	–	–
[1], x1 = 0.15	1.38	1.3757	1.3714	1.3672	–	–	–	–
[1], x1 = 0.2	1.3843	1.3801	1.3758	1.3715	–	–	–	–
[1], x1 = 0.25	1.3882	1.384	1.3797	1.3755	–	–	–	–
[1], x1 = 0.3	1.3918	1.3876	1.3833	1.379	–	–	–	–
[1], x1 = 0.35	1.3951	1.3908	1.3866	1.3823	–	–	–	–
[1], x1 = 0.4	1.3981	1.3938	1.3896	1.3852	–	–	–	–
[1], x1 = 0.45	1.4009	1.3965	1.3923	1.388	–	–	–	–
[1], x1 = 0.5	1.4034	1.3991	1.3949	1.3905	–	–	–	–
[1], x1 = 0.55	1.4058	1.4014	1.3972	1.3928	–	–	–	–
[1], x1 = 0.6	1.4079	1.4036	1.3994	1.395	–	–	–	–
[1], x1 = 0.65	1.41	1.4056	1.4014	1.397	–	–	–	–
[1], x1 = 0.7	1.4119	1.4075	1.4033	1.3989	–	–	–	–
[1], x1 = 0.75	1.4137	1.4093	1.4051	1.4007	–	–	–	–
[1], x1 = 0.8	1.4154	1.4111	1.4069	1.4024	–	–	–	–
[1], x1 = 0.85	1.417	1.4126	1.4084	1.404	–	–	–	–
[1], x1 = 0.9	1.4184	1.4141	1.4099	1.4054	–	–	–	–
[1], x1 = 0.95	1.4198	1.4154	1.4112	1.4068	–	–	–	–
[1], x1 = 1	1.4209	1.4166	1.4125	1.408	–	–	–	–
[2], x1 = 0.05	–	–	–	–	23.53	22.77	21.91	20.98
[2], x1 = 0.1	–	–	–	–	24.1	23.31	22.42	21.46
[2], x1 = 0.15	–	–	–	–	24.65	23.83	22.91	21.94
[2], x1 = 0.2	–	–	–	–	25.22	24.38	23.42	22.43
[2], x1 = 0.25	–	–	–	–	25.77	24.89	23.9	22.9
[2], x1 = 0.3	–	–	–	–	26.28	25.38	24.38	23.37
[2], x1 = 0.35	–	–	–	–	26.78	25.88	24.84	23.83
[2], x1 = 0.4	–	–	–	–	27.28	26.36	25.32	24.3
[2], x1 = 0.45	–	–	–	–	27.8	26.86	25.81	24.79
[2], x1 = 0.5	–	–	–	–	28.35	27.4	26.32	25.29
[2], x1 = 0.55	–	–	–	–	28.92	27.96	26.84	25.8
[2], x1 = 0.6	–	–	–	–	29.46	28.52	27.38	26.31
[2], x1 = 0.65	–	–	–	–	30.02	29.04	27.9	26.81
[2], x1 = 0.7	–	–	–	–	30.54	29.55	28.4	27.3
[2], x1 = 0.75	–	–	–	–	31.05	30.06	28.89	27.78
[2], x1 = 0.8	–	–	–	–	31.53	30.54	29.36	28.24
[2], x1 = 0.85	–	–	–	–	32.02	31.01	29.81	28.7
[2], x1 = 0.9	–	–	–	–	32.47	31.46	30.26	29.14
[2], x1 = 0.95	–	–	–	–	32.91	31.89	30.68	29.56
[2], x1 = 1	–	–	–	–	33.3	32.3	31.1	30

COC(=O)c1ccccc1 [methyl benzoate] + CCO
Settings	refractive index, 288.15 K	refractive index, 298.18 K	refractive index, 308.15 K	refractive index, 318.15 K	surface tension liquid-gas, 288.15 K [mN/m]	surface tension liquid-gas, 298.18 K [mN/m]	surface tension liquid-gas, 308.15 K [mN/m]	surface tension liquid-gas, 318.15 K [mN/m]
[1], x1 = 0.05	1.38013	1.37591	1.37154	1.36738	–	–	–	–
[1], x1 = 0.1	1.39497	1.39068	1.38617	1.38191	–	–	–	–
[1], x1 = 0.15	1.40825	1.40383	1.39926	1.39488	–	–	–	–
[1], x1 = 0.2	1.41993	1.41549	1.41088	1.40643	–	–	–	–
[1], x1 = 0.25	1.43052	1.42606	1.42138	1.41686	–	–	–	–
[1], x1 = 0.3	1.44018	1.4357	1.43104	1.42643	–	–	–	–
[1], x1 = 0.35	1.44896	1.44448	1.4398	1.43518	–	–	–	–
[1], x1 = 0.4	1.45703	1.45255	1.44784	1.44318	–	–	–	–
[1], x1 = 0.45	1.4645	1.46	1.45528	1.45059	–	–	–	–
[1], x1 = 0.5	1.47142	1.46691	1.4622	1.45746	–	–	–	–
[1], x1 = 0.55	1.47785	1.47332	1.46859	1.46384	–	–	–	–
[1], x1 = 0.6	1.48384	1.4793	1.47455	1.46979	–	–	–	–
[1], x1 = 0.65	1.48938	1.48487	1.4801	1.47528	–	–	–	–
[1], x1 = 0.7	1.49451	1.49	1.4852	1.48039	–	–	–	–
[1], x1 = 0.75	1.49936	1.49482	1.49002	1.48515	–	–	–	–
[1], x1 = 0.8	1.50381	1.49926	1.49445	1.48961	–	–	–	–
[1], x1 = 0.85	1.50803	1.50347	1.49866	1.49378	–	–	–	–
[1], x1 = 0.9	1.512	1.50743	1.5026	1.49773	–	–	–	–
[1], x1 = 0.95	1.51569	1.51112	1.50631	1.50144	–	–	–	–
[1], x1 = 1	1.51915	1.51467	1.50993	1.50514	–	–	–	–
[2], x1 = 0.05	–	–	–	–	23.8	23	22.1	21.2
[2], x1 = 0.1	–	–	–	–	24.63	23.78	22.87	21.9
[2], x1 = 0.15	–	–	–	–	25.4	24.51	23.57	22.6
[2], x1 = 0.2	–	–	–	–	26.18	25.25	24.28	23.3
[2], x1 = 0.25	–	–	–	–	26.92	25.96	24.94	23.95
[2], x1 = 0.3	–	–	–	–	27.67	26.66	25.59	24.6
[2], x1 = 0.35	–	–	–	–	28.37	27.3	26.2	25.2
[2], x1 = 0.4	–	–	–	–	29.04	27.9	26.8	25.8
[2], x1 = 0.45	–	–	–	–	29.69	28.55	27.4	26.4
[2], x1 = 0.5	–	–	–	–	30.33	29.16	28	27
[2], x1 = 0.55	–	–	–	–	30.97	29.79	28.6	27.6
[2], x1 = 0.6	–	–	–	–	31.62	30.41	29.2	28.2
[2], x1 = 0.65	–	–	–	–	32.29	31.05	29.8	28.8
[2], x1 = 0.7	–	–	–	–	33.01	31.75	30.5	29.46
[2], x1 = 0.75	–	–	–	–	33.78	32.5	31.2	30.16
[2], x1 = 0.8	–	–	–	–	34.6	33.3	32	30.92
[2], x1 = 0.85	–	–	–	–	35.6	34.2	32.8	31.76
[2], x1 = 0.9	–	–	–	–	36.6	35.2	33.8	32.7
[2], x1 = 0.95	–	–	–	–	37.6	36.2	34.8	33.8
[2], x1 = 1	–	–	–	–	38.6	37.2	35.8	34.8
